Measured values from patent US20230382934A1, “HIGH ENTROPY OXIDES AND METHODS OF SYNTHESIS AND USE THEREOF” (Auburn University, priority 2022, published 2023).

What was measured:
[1] = T1-weighted relaxivity response to H2O2, 3 T clinical MRI scanner; conditions: Example 1, Mn(II) complex with H4qp4
Protocol: The relaxivities of complex 1 before and during its reaction with H2O2 were assessed using a 3 T MRI scanner (FIG. 27D). T1 values were measured for aqueous solutions containing 0-1.0 mM 1 and 50 mM HEPES buffered to pH 7.00. For each concentration of 1, an oxidized sample was also prepared by adding 10 mM H2O2; the large excess of oxidant was used to ensure as full a turn-on as possible at the timepoints and to facilitate comparisons to manganese-containing MRI contrast agents that were previously prepared and characterized. The T1 values for the H2O2-containing solutions were measured 1 h and 2 h after the reagents were initially mixed. Full series of data were collected for two independently prepared batches of 1 in order to confirm that the results were replicable.
The MRI properties of 1 were assessed using methods that were previously employed in studies of manganese-containing MRI contrast agents. The relaxivity of 1 was measured before and after its reaction with excess H2O2 using a 3 T MRI scanner (FIG. 51). The r1 for the pre-activated complex was calculated from the T1 values of aqueous solutions containing 50 mM HEPES buffered to pH 7.00 and 0-1 mM 1. T1 measurements were also acquired for oxidized samples that contained 10 mM H2O2 in addition to the aforementioned reagents. The T1 values were measured 30 min and 60 min after the solution samples were initially prepared. […]

[2] = Catalase activity (degradation of H2O2, absorbance at 240 nm); assay type: biochemical; conditions: Mn(II) complex, 100 nM, 10 mM H2O2, 100 mM phosphate pH 7.0
Protocol: (§1) FIG. 31 depicts representative kinetic traces for the reaction between 100 nM 1 and 10 mM H2O2 in 100 mM phosphate solution buffered to pH 7.0. The absorbance at 240 nm was monitored over time. Activity values were calculated using the UV-1601PC Kinetics program and converted to an initial rate (vo/[1]T) using the following equation: vo/[1]T=(activity)/[60 s×0.01 μM×0.0000394 μM^−1 cm^−1×1.0 cm].
as §1, with “FIG. 66” for “FIG. 31”, “in 200” for “in 100”, “vo/[1]T=(activity)/[60 s×0.1” for “vo/[1]T=(activity)/[60 s×0.01”, “cm^−1×1.0 cm]” for “cm^−1×1.0 cm].”
FIG. 67, comprising FIG. 67A and FIG. 67B, depicts a Michaelis-Menten fit of the activity of 1. FIG. 67A depicts activity of 1 with increasing concentrations of H2O2. All reactions were performed in 200 mM phosphate buffered to pH 7.0 at 25° C. with an initial 100 nM concentration of 1. […]
In order to assess the ability of the Mn(II) complex to catalyze the degradation of H2O2, we reacted 100 nM 1 with 10 mM H2O2 in 100 mM phosphate solution buffered to pH 7.0 and monitored the absorbance at 240 nm over time. […] The consumption of H2O2 was evaluated using a UV-1601 Shimadzu spectrophotometer.

[3] = Stability of Fe(III) complexes by potentiometric pH titration (log KML); assay type: physicochemical; conditions: 25° C.
Protocol: The aqueous speciation of H4qp4 was previously determined. Those for its Fe(II) and Fe(III) complexes were assessed using a METROHM 765 Dosimat with a jacketed, airtight glass titration vessel. A Fisher Scientific Accumet Research AR15 pH meter was used to monitor the pH of the sample solutions during the titrations. The electrode was calibrated before each titration using commercially available standard solutions buffered to pH 4.0, 7.0, and 10.0. All samples were purged with argon prior to analysis and subsequently analyzed under an argon atmosphere at 25° C. to prevent carbonate contamination. All solution samples were prepared in solutions of 100 mM KCl in deionized Millipore water. The titrations investigating metal-ligand speciation were run with solutions that contained a 1:1 molar mixture of the ligand and FeCl2·(4H2O). Carbonate-free solutions of 0.10 M KOH and 0.10 M HCl were prepared using argon-saturated deionized Millipore water. The titration data were analyzed and fit to speciation models using the Hyperquad2006 program.

[4] = Variable temperature 17O NMR, aquation number and water exchange of Mn(II) complexes; assay type: physicochemical; conditions: Example 1, Mn(II) complexes, 298 K
Protocol: FIG. 16 depicts plots of r2° as a function of temperature for 1 before and after oxidation by H2O2. Experimental conditions for pre-activated sensor (black squares): [1]=6.0 mM in 60 mM HEPES buffered to pH 7.4 and 10% (v/v) of 10% ^17OH2, B=9.4 T. Experimental conditions for activated sensor (red circles): [1]=2.5 mM in 60 mM MOPS buffered to pH 7.4 with 15 equiv. H2O2 and 10% (v/v) of 10% ^17OH2, B=9.4 T. NMR data acquisition began 15 min after the start of the oxidation reaction.
Aquation numbers (q) were calculated from the maximum ^17O transverse relaxivity, r2max°, and the equation: q=r2max°/510; Gale, Zhu, and Caravan previously used this relationship to estimate the inner-sphere hydration state of Mn(II) in coordination complexes (Gale, E. M. et al., 2013, J. Am. Chem. Soc., 135:18600). Relaxation rates were measured both for aqueous solutions containing Mn(II) complexes and for metal-free solutions buffered to pH 7.4. The linewidths at half-height of the signal were determined by a deconvolution procedure on the real part of the Fourier transformed spectra with a Lorentzian shape function in the data analysis module of Bruker Topspin 1.3® software. The measurements were performed with a commercial 5 mm Bruker broadband probe thermostat with a Bruker B-VT 3000 variable temperature unit. […]

[5] = Metal ion exchange with Fe(II) followed by UV/vis; assay type: physicochemical; conditions: Example 1, by 3 h
Protocol: FIG. 18, comprising FIG. 18A and FIG. 18B, depicts representative spectrophotometric spectra. FIG. 18A depicts spectrophotometric analysis of the reaction between 0.1 mM Fe(ClO4)2 and 0.1 mM 1 in MeCN at 298 K. The UV/vis spectra of the product formed from 0.1 mM Fe(ClO4)2 and 0.1 mM H4qp4 (blue) and that corresponding to 0.1 mM 1 are provided for comparison. FIG. 18B depicts spectrophotometric analysis of the reaction between 0.1 mM Fe(OTf)2 and 0.1 mM 1 in aqueous solutions containing 50 mM HEPES buffered to pH 7.00 at 298 K. The UV/vis spectrum of the product formed from 0.1 mM Fe(OTf)2 and 0.1 mM H4qp4 (blue) and that corresponding to 0.1 mM 1 are provided for comparison.

[6] = Metal ion exchange with Zn(II) followed by 1H NMR; assay type: physicochemical; conditions: Example 2, 10 mM Fe(III) complex 3 and 20 mM Zn(ClO4)2, 48 h
Protocol: FIG. 19, comprising FIG. 19A and FIG. 19B, depicts representative NMR data. FIG. 19A depicts a reaction between 20 mM Zn(ClO4)2 and 10 mM 1 in CD3CN. The reaction equilibrated at 295 K for 24 h prior to data acquisition. FIG. 19B depicts the ^1H NMR spectrum of the product of the reaction between 10 mM Zn(ClO4)2 and 10 mM metal-free H4qp4.
FIG. 63, comprising FIG. 63A and FIG. 63B, depicts representative NMR data. FIG. 63A depicts the reaction between 20 mM Zn(ClO4)2 and 10 mM 3 in D20. The reaction equilibrated at 295 K for 48 h prior to data acquisition. FIG. 63B depicts a ^1H NMR spectrum of the product of the reaction between 10 mM Zn(ClO4)2 and 10 mM metal-free H4qp4 in D20.

[7] = T1-weighted relaxivity, 3 T clinical MRI scanner; conditions: Example 2, Fe(III) complex 3, 3 T, 50 mM HEPES pH 7.00, 298 K
Excerpt: All MRI data were collected at the Auburn University MRI Research Center on a Siemens Verio open-bore 3-T MRI clinical scanner. A 15-channel knee coil was used to simultaneously image 12-15 samples. The imaging procedure was identical to those used for similar studies (Zhang, Q. et al., 2011, Inorg. Chem. 50, 9365; Yu, M. et al., 2014, J. Am. Chem. Soc., 136:12836; Yu, M. et al., 2017, Inorg. Chem., 56:2812; Yu, M. et al., 2012, Inorg. Chem. 51:9153). An inversion recovery (IR) sequence was used that featured a non-selective adiabatic inversion pulse followed by a slice-selective gradient recalled echo (GRE) readout after a delay period corresponding to the inversion time (TI) (Bernstein, M. A. et al., 2004, Handbook of MRI Pulse Sequences; Haacke, E. M. et al., 1999, Magnetic Resonance Imaging: Physical Principles and Sequence Design). The GRE was a saturation readout, such that only one line of k-space was acquired per repetition time (TR), in order to maximize both signal strength and the accuracy of the T1 estimates. […]
Image analysis was performed using custom Matlab programs (Mathworks, Natick, MA). The initial TI=4.8 ms image was used as a baseline to determine circular region of interest (ROI) boundaries for each sample; from these, the mean pixel magnitudes for each ROI were calculated. […]

[8] = pH 7.4, 1.0 mM Mn(II) and ligand, previously characterized complexes; cited from earlier work
[9] = Example 1, previously reported Mn(II) complex 3; cited from earlier work

| initial rate vo/[1]T [2] | log KML [3] | Mn(II) displaced by an equimolar amount of Fe(II) [5] | Zn(II) complex with H4qp4 formed [6] | Compound | increase in r1 upon oxidation by H2O2 [1] | rate constant for water exchange (kex) [4] | r1 [7] | pMn [8] | r1 of pre-activated form [9] |
| --- | --- | --- | --- | --- | --- | --- | --- | --- | --- |
| 6600 s⁻¹ | – | – | – | (1,8-Bis(2,5-dihydroxybenzyl)-1,4,8,11tetraazacyclotetradecane)manganese(II) triflate [Complex 1] | 130% | – | – | – | – |
| – | 33.80 | 80% | only trace amounts | O=S(=O)([O-])C(F)(F)F.O=S(=O)([O-])C(F)(F)F.[Fe+3].[O-]c1ccc(O)cc1CN1CCCNCCN(Cc2cc(O)ccc2O)CCCNCC1 [Complex 3, (1-(2,5-dihydroxybenzyl)-8-(2,5-dihydroxybenzylalkoxide)-1,4,8,11-tetraazacyclotetradecane)iron(III) triflate] | – | 4.9e+06 s⁻¹ | 0.87 mM⁻¹ s⁻¹ | 5.36 | 5.46 mM^−1 s^− |
